In general, pIC50 refers to the negative decadic logarithm of the IC50, by convention in mol/L. Low values mean a large IC50, high ones a small IC50.

The record followed here is US11306081B2, “Phenylacetamides as inhibitors of rock” (BRISTOL-MYERS SQUIBB COMPANY, priority 2017, dated 2022).

pIC50: −log10 of the molar value.

Sequence of ROCK2 (O75116 whole entry, species assumed): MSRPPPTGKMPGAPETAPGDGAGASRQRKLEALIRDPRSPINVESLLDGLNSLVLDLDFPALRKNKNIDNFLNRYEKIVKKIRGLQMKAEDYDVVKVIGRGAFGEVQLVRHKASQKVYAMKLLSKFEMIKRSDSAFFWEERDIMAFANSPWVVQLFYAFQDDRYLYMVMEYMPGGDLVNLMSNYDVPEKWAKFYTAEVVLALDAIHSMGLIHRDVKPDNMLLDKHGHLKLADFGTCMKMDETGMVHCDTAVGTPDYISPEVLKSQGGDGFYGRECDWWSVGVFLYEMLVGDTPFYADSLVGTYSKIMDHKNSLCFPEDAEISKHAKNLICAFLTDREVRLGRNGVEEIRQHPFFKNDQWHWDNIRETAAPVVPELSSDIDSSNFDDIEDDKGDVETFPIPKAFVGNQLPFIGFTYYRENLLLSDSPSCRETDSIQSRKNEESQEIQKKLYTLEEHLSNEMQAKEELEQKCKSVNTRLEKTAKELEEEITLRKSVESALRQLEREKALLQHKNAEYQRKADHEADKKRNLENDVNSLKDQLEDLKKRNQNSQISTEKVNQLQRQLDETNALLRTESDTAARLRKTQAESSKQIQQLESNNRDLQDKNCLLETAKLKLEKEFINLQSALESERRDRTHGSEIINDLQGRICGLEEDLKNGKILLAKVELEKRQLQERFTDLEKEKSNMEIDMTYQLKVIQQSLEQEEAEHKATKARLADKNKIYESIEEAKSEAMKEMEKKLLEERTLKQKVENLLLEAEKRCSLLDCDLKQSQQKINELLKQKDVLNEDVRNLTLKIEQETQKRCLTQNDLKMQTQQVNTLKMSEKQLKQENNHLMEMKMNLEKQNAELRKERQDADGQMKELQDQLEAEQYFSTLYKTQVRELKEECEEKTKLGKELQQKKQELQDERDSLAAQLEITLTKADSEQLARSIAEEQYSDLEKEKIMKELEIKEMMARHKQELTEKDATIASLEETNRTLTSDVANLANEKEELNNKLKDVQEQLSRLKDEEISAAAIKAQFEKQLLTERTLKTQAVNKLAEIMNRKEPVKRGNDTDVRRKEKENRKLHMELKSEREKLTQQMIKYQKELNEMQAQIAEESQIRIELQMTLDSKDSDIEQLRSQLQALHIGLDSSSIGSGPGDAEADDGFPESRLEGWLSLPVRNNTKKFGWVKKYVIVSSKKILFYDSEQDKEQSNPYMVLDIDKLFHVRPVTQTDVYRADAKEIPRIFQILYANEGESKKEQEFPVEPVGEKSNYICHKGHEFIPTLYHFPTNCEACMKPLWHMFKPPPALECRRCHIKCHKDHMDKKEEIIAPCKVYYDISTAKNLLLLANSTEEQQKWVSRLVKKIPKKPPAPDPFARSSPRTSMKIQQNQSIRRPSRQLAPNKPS

The assay has as its target ROCK2 (Homo sapiens (Human), UniProt O75116). Description: ROCK assay (LABCHIP 3000 peptide phosphorylation assay). Particulars: 5 μM ATP, 1.5 μM peptide substrate, dose-response. The class given is biochemical. As for the experimental part: The effectiveness of compounds of the present invention as ROCK inhibitors can be determined in a 30 μL assay containing 20 mM HEPES, pH 7.5, 20 mM MgCl2, 0.015% Brij-35, 4 mM DTT, 5 μM ATP and 1.5 μM peptide substrate (FITC-AHA-AKRRRLSSLRA-OH) (SEQ ID No. 1). Compounds were dissolved in DMSO so that the final concentration of DMSO was <2%, and the reaction was initiated with Rho kinase variants. After incubation, the reaction was terminated by the addition of EDTA and the phosphorylated and non-phosphorylated peptides separated using a LABCHIP® 3000 Reader (Caliper Life Sciences). […] Compounds were tested in dose-response format, and the inhibition of kinase activity was calculated at each concentration of compound. The inhibition data were fit using a curve-fitting program to determine the IC50; i.e., the concentration of compound required to inhibit 50% of kinase activity.
`Cn1ccc(-c2ccc3sc(NC(=O)Cc4ccc(Oc5ncccc5C(N)=O)c(F)c4)nc3c2)cc1=O` [Example 025, 2-(2-fluoro-4-(2-((5-(1-methyl-2-oxo-1,2-dihydropyridin-4-yl)benzo[d]thiazol-2-yl)amino)-2-oxoethyl)phenoxy)nico-tinamide] gave a pIC50 of 7.64.
The value for `Cn1cc(-c2ccc3sc(NC(=O)Cc4ccc(Oc5ncccc5C(N)=O)c(F)c4)nc3c2)c(C2CC2)n1` [Example 026, 2-(4-(2-((5-(3-cyclopropyl-1-methyl-1H-pyrazol-4-yl)benzo[d]thiazol-2-yl)amino)-2-oxoethyl)-2-fluorophenoxy)nicotin-amide] was 8.10; that for `Cc1nn(C)c(-c2ccc3sc(NC(=O)Cc4ccc(Oc5ncccc5C(N)=O)c(F)c4)nc3c2)c1C` [Example 027, 2-(2-fluoro-4-(2-oxo-2-((5-(1,3,4-trimethyl-1H-pyrazol-5-yl)benzo[d]thiazol-2-yl)amino)ethyl)phenoxy) nicotinamide] was 8.30; that for `Cc1cc(-c2ccc3sc(NC(=O)Cc4ccc(Oc5ncccc5C(N)=O)c(F)c4)nc3c2)n(C)n1` [Example 028, 2-(4-(2-((5-(1,3-dimethyl-1H-pyrazol-5-yl)benzo[d]thiazol-2-yl)amino)-2-oxoethyl)-2-fluorophenoxy)nicotin-amide] was 7.52.
As to `NC(=O)c1cccnc1Oc1ccc(CC(=O)Nc2nc3cc(-c4cnn(C(F)F)c4)ccc3s2)cc1F` [Example 029, 2-(4-(2-((5-(1-(difluoromethyl)-1H-pyrazol-4-yl)benzo[d]thiazol-2-yl)amino)-2-oxoethyl)-2-fluorophenoxy)nicotin-amide], the pIC50 is 8.05.
The value for `Cn1nccc1-c1ccc2sc(NC(=O)Cc3ccc(Oc4ncccc4C(N)=O)c(F)c3)nc2c1` [Example 030, 2-(2-fluoro-4-(2-((5-(1-methyl-1H-pyrazol-5-yl)benzo[d]thiazol-2-yl)amino)-2-oxoethyl)phenoxy)nico-tinamide] was 8.10; that for `NC(=O)c1cccnc1Oc1ccc(CC(=O)Nc2nc3cc(-c4cn[nH]c4)ccc3s2)cc1F` [Example 031, 2-(4-(2-((5-(1H-pyrazol-4-yl)benzo[d]thiazol-2-yl)amino)-2-oxoethyl)-2-fluorophenoxy)nicotin-amide] was 8.10; that for `NC(=O)c1cccnc1Oc1ccc(CC(=O)Nc2nc3cc(-c4c[nH]nc4C(F)(F)F)ccc3s2)cc1F` [Example 032, 2-(2-fluoro-4-(2-oxo-2-((5-(3-(trifluoromethyl)-1H-pyrazol-4-yl)benzo[d]thiazol-2-yl)amino)ethyl)phenoxy) nicotinamide] was 7.05.
The result for `Cn1ccc(-c2ccc3sc(NC(=O)Cc4ccc(Oc5ncccc5C(N)=O)c(F)c4)nc3c2)n1` [Example 033, 2-(2-fluoro-4-(2-((5-(1-methyl-1H-pyrazol-3-yl)benzo[d]thiazol-2-yl)amino)-2-oxoethyl)phenoxy)nico-tinamide] reads 8.15; that for `[2H]C([2H])([2H])n1ccc(-c2ccc3sc(NC(=O)Cc4ccc(Oc5ncccc5C(N)=O)c(F)c4)nc3c2)n1` [Example 034, 2-(2-fluoro-4-(2-((5-(1-(methyl-d3)-1H-pyrazol-3-yl)benzo[d]thiazol-2-yl)amino)-2-oxoethyl)phenoxy)nico-tinamide], 8.10.
The value for `Cn1cc(-c2ccc3sc(NC(=O)Cc4ccc(Oc5ncccc5C(N)=O)c(F)c4)nc3c2)cn1` [Example 035, 2-(2-fluoro-4-(2-((5-(1-methyl-1H-pyrazol-4-yl)benzo[d]thiazol-2-yl)amino)-2-oxoethyl)phenoxy)nico-tinamide] was 8.00.
The compound `Cn1cc(-c2ccc3nc(NC(=O)Cc4ccc(Oc5ncccc5C(N)=O)c(F)c4)cn3c2)cn1` [Example 036, 2-(2-fluoro-4-(2-((6-(1-methyl-1H-pyrazol-4-yl)imidazo[1,2-a]pyridin-2-yl)amino)-2-oxoethyl)phenoxy)nico-tinamide] had a negative-log IC50 (pIC50) of 7.32.
`Cn1cc(-c2ccc3nc(NC(=O)Cc4ccc(Oc5ncccc5C(N)=O)c(Cl)c4)cn3c2)cn1` [Example 037, 2-(2-chloro-4-(2-((6-(1-methyl-1H-pyrazol-4-yl)imidazo[1,2-a]pyridin-2-yl)amino)-2-oxoethyl)phenoxy)nico-tinamide] showed a pIC50 of 7.47.
The value for `Cn1cc(-c2ccc3c(c2)nc(NC(=O)Cc2ccc(Oc4ncccc4C(N)=O)c(F)c2)n3CC(F)(F)F)cn1` [Example 038, 2-(2-fluoro-4-(2-((5-(1-methyl-1H-pyrazol-4-yl)-1-(2,2,2-trifluoroethyl)-1H-benzo[d]imidazol-2-yl)amino)-2-oxoethyl)phenoxy)nico-tinamide] was 7.52.
The result for `Cc1sc(NC(=O)Cc2ccc(Oc3ncccc3C(N)=O)c(F)c2)nc1-c1cnc(N2CCN(C)CC2)nc1` [Example 039, 2-(2-fluoro-4-(2-((5-methyl-4-(2-(4-methylpiperazin-1-yl)pyrimidin-5-yl)thiazol-2-yl)amino)-2-oxoethyl)phenoxy)nico-tinamide] reads 6.74.
The value for `COc1ncc(-c2nc(NC(=O)Cc3ccc(Oc4ncccc4C(N)=O)c(F)c3)sc2C)cn1` [Example 040, 2-(2-fluoro-4-(2-((4-(2-methoxypyrimidin-5-yl)-5-methylthiazol-2-yl)amino)-2-oxoethyl)phenoxy)nico-tinamide] was 7.00; that for `Cc1sc(NC(=O)Cc2ccc(Oc3ncccc3C(N)=O)c(F)c2)nc1-c1cncnc1` [Example 041, 2-(2-fluoro-4-(2-((5-methyl-4-(pyrimidin-5-yl)thiazol-2-yl)amino)-2-oxoethyl)phenoxy)nico-tinamide] was 6.76.
`Cc1sc(NC(=O)Cc2ccc(Oc3ncccc3C(N)=O)c(F)c2)nc1-c1cnc(C(C)(C)O)nc1` [Example 042, 2-(2-fluoro-4-(2-((4-(2-(2-hydroxypropan-2-yl)pyrimidin-5-yl)-5-methylthiazol-2-yl)amino)-2-oxoethyl)phenoxy)nico-tinamide] had a negative-log IC50 (pIC50) of 6.33.
With `COc1cccc(-c2nc(NC(=O)Cc3ccc(Oc4ncccc4C(N)=O)c(F)c3)sc2C)n1` [Example 043, 2-(2-fluoro-4-(2-((4-(6-methoxypyridin-2-yl)-5-methylthiazol-2-yl)amino)-2-oxoethyl)phenoxy)nico-tinamide], the pIC50 is 7.16.
The value for `Cc1sc(NC(=O)Cc2ccc(Oc3ncccc3C(N)=O)c(F)c2)nc1-c1ccncc1` [Example 044, 2-(2-fluoro-4-(2-((5-methyl-4-(pyridin-4-yl)thiazol-2-yl)amino)-2-oxoethyl)phenoxy)nico-tinamide] was 7.62.
The result for `Cc1sc(NC(=O)Cc2ccc(Oc3ncccc3C(N)=O)c(F)c2)nc1-c1cccc(C#N)n1` [Example 045, 2-(4-(2-((4-(6-cyanopyridin-2-yl)-5-methylthiazol-2-yl)amino)-2-oxoethyl)-2-fluorophenoxy)nicotin-amide] reads 7.68; that for `Cc1sc(NC(=O)Cc2ccc(Oc3ncccc3C(N)=O)c(F)c2)nc1C1CC1` [Example 046, 2-(4-(2-((4-cyclopropyl-5-methylthiazol-2-yl)amino)-2-oxoethyl)-2-fluorophenoxy)nicotin-amide], 7.66.
Consider `Cc1sc(NC(=O)Cc2ccc(Oc3ncccc3C(N)=O)c(F)c2)nc1-c1ccc(S(C)(=O)=O)cc1` [Example 047, 2-(2-fluoro-4-(2-((5-methyl-4-(4-(methylsulfonyl)phenyl)thiazol-2-yl)amino)-2-oxoethyl)phenoxy)nico-tinamide], for which the pIC50 was 7.08.
Turning to `Cc1sc(NC(=O)Cc2ccc(Oc3ncccc3C(N)=O)c(F)c2)nc1-c1ccc(S(=O)(=O)C(C)C)cc1` [Example 048, 2-(2-fluoro-4-(2-((4-(4-(isopropylsulfonyl)phe-nyl)-5-methylthiazol-2-yl)amino)-2-oxoethyl)phenoxy)nico-tinamide], the pIC50 is 6.95.
`NC(=O)c1cccnc1Oc1ccc(CC(=O)Nc2nc3ccccc3s2)cc1` [Example 049, 2-(4-(2-(benzo[d]thiazol-2-ylamino)-2-oxoethyl)phenoxy) nicotinamide] showed a pIC50 of 6.71.
`Cc1ccc(-c2nc(NC(=O)Cc3ccc(Oc4ncccc4C(N)=O)cc3)sc2C)cc1Cl` [Example 050, 2-(4-(2-((4-(3-chloro-4-methylphenyl)-5-methylthiazol-2-yl)amino)-2-oxoethyl)phenoxy) nicotinamide] showed a pIC50 of 6.76.
The value for `COc1ccc(-c2csc(NC(=O)Cc3ccc(Oc4ncccc4C(N)=O)cc3)n2)cc1OC` [Example 051, 2-(4-(2-((4-(3,4-dimethoxyphenyl)thiazol-2-yl)amino)-2-oxoethyl)phenoxy) nicotinamide] was 6.84.
Take `NC(=O)c1cccnc1Oc1ccc(CC(=O)Nc2nc(-c3ccccc3)cs2)cc1` [Example 052, 2-(4-(2-oxo-2-((4-phenylthiazol-2-yl)amino)ethyl)phe-noxy)nicotinamide]: the pIC50 was 6.75.
The compound `COc1ccc2c(c1)CCc1sc(NC(=O)Cc3ccc(Oc4ncccc4C(N)=O)cc3)nc1-2` [Example 053, 2-(4-(2-((7-methoxy-4,5-dihydronaphtho[1,2-d]thiazol-2-yl)amino)-2-oxoethyl)phenoxy) nicotinamide] showed a negative-log IC50 (pIC50) of 7.68.
Compound `NC(=O)c1cccnc1Oc1ccc(CC(=O)Nc2nc3ccccc3o2)cc1` [Example 054, 2-(4-(2-(benzo[d]oxazol-2-ylamino)-2-oxoethyl)phenoxy) nicotinamide] had a pIC50 of 6.44.
In the case of `Cc1nnc(NC(=O)Cc2ccc(Oc3ncccc3C(N)=O)cc2)s1` [Example 055, 2-(4-(2-((5-methyl-1,3,4-thiadiazol-2-yl)amino)-2-oxoethyl)phenoxy) nicotinamide], the negative logarithm of the IC50 (pIC50) is 5.95.
